18 molecules from patent US5605901A, “Indane derivatives, processes for preparing the same and synthetic intermediate of the same” (Tanabe Seiyaku Co., Ltd., priority 1993, dated 1997) can be followed below.

SMILES strings stand for the structures.

A short description of one assay: Action of protecting mouse from death induced by endotoxin. The class given is in vivo, mouse (ddy strain). The conditions noted are these: 100 mg/kg orally, 30 min before endotoxin 100 mg/10 ml/kg i.p.; determined when control survival became 20 (about 20 hours). The method, then:
(Action of Protecting Mouse from Death Induced by Endotoxin)
To ddy strain male mice (one group: 10 mice) which had fasted for about 24 hours, each test sample dissolved or suspended in a 0.25% sodium carboxymethyl cellulose (CMC) aqueous solution was orally administered (100 mg/kg). After 30 minutes, 100 mg/10 ml/kg of endotoxin (lipopoly-saccharide) derived from Escherichia coli dissolved in physiological saline was administered intraperitoneally. When the survival rate of the control group to which the CMC aqueous solution had been orally administered became 20 (about 20 hours after administration of endotoxin), the survival rates of the groups to which the test samples had been administered were determined.
Take `CCCN(C(=O)OCc1ccccc1)C1Cc2ccc(C3=NNC(=O)CC3)cc2C1` (stereo not drawn) [Example 37]: the Survival rate is 60%.

`O=C1CCC(c2ccc3c(c2)CC(NC(=O)c2cccnc2)C3)=NN1` (stereo not drawn) [Example 18]: the Survival rate stood at 80%.

For `CCCC(=O)NC1Cc2ccc(C3=NNC(=O)CC3)cc2C1` (stereo not drawn) [Example 11, 2-butyrylamino-5-[4,5-dihydropyridazin-3(2H)-on-6-yl]indane], the Survival rate turned out to be 100%. Molecule `O=C1CCC(c2ccc3c(c2)CC(NC(=O)c2cnccn2)C3)=NN1` (stereo not drawn) [Example 22] showed a Survival rate of 70%. As to `CCC(=O)NC1Cc2ccc(C3=NNC(=O)CC3)cc2C1` (stereo not drawn) [Example 12], the Survival rate is recorded as 90%.

For the molecule `O=C1CCC(c2ccc3c(c2)CC(NC(=O)c2ccccn2)C3)=NN1` (stereo not drawn) [Example 25], the Survival rate was found to be 80%.

On to `CCCN(C(=O)OCC(C)C)C1Cc2ccc(C3=NNC(=O)CC3)cc2C1` (stereo not drawn) [Example 35, 2-(N-propyl-N-isobutoxycarbonylamino)-5-[4,5-dihydropyridazin-3(2H)-on-6-yl]indane], for which the Survival rate stood at 80%.

The nature of a further assay: Action on rat glomerular nephritis (nephrotoxic serum-induced; protein excretion in urine). The class given is in vivo, rat (WKY strain). The conditions noted are these: po, 30 mg/kg/10 ml orally twice a day for 8 days, NTS-induced nephritis, 24 hours urine collected after 7 days, read-out: Inhibition rate of excretion of protein in urine. The method, then: (Action on Rat Glomerular Nephritis)
Rabbits were immunized several times with a renal glomerular basement membrane fraction obtained from WKY strain rats and an adjuvant. Thereafter, blood was collected to obtain a nephrotoxic serum (NTS). This NTS was diluted by 50 times with physiological saline, and the diluted NTS was once administered intravenously to male WKY rats of 8 weeks old in a dose of 2.5 ml per 1 kg of body weight to induce nephritis. In normal group of rats, the same volume of physiological saline was intravenously administered.
In the experiment, one group consisted of 6 rats, and each compound to be tested was suspended in water with small amount of Tween 80 (trade name, produced by Nacalai Tesque Co.), and was orally administered to the test group of rats at a dose of 30 mg/kg/10 ml twice a day for 8 days. In normal group and control group of rats, the same volume of water was orally administered instead of the test compound. After 7 days, the rats were placed in metabolic cages and urine was collected for 24 hours. Concentrations of protein in urine were measured by the sulfosalicylic acid method to determine amounts of protein excreted in the urine (mg/day). The inhibition rate of excretion of protein were calculated by the following equation. [formula]
For `Cc1ncccc1C(=O)NCCC1Cc2ccc(-c3ccc(=O)[nH]n3)cc2C1` (stereo not drawn) [Example 127], the inhibition in vivo at 30 mg/kg was 93%. With `O=C(NCCC1Cc2ccc(-c3ccc(=O)[nH]n3)cc2C1)c1cccnc1` (stereo not drawn) [Example 110], the inhibition in vivo at 30 mg/kg turned out to be 91.8%. Same read-out and setting: the result for `O=C(NCCC1Cc2ccc(-c3ccc(=O)[nH]n3)cc2C1)c1ccncc1` (stereo not drawn) [Example 109] reads 67.4%. Still for that read-out and setting: the result for `C=CC(=O)NCCCCC1Cc2ccc(-c3ccc(=O)[nH]n3)cc2C1` (stereo not drawn) [Example 63] reads 61.6%; that for `O=C1CCC(c2ccc3c(c2)CC(CCNC(=O)c2cccnc2)C3)=NN1` (stereo not drawn) [Example 148], 88.9%; that for `C=CC(=O)NCCC1Cc2ccc(-c3ccc(=O)[nH]n3)cc2C1` (stereo not drawn) [Example 105], 60.2%. Regarding `O=C(NCC1Cc2ccc(-c3ccc(=O)[nH]n3)cc2C1)c1cccnc1` (stereo not drawn) [Example 60], the inhibition in vivo at 30 mg/kg turned out to be 59.5%.

Consider `Nc1ncccc1C(=O)NCCC1Cc2ccc(-c3ccc(=O)[nH]n3)cc2C1` (stereo not drawn) [Example 129], for which the inhibition in vivo at 30 mg/kg was 98.9%. The same measure, in the same setting: the result for `CCCC(=O)NC1Cc2ccc(-c3ccc(=O)[nH]n3)cc2C1` (stereo not drawn) [Example 40, 2-butyrylamino-5-[pyridazin-3(2H)-on-6-yl]indane] reads 72.4%. Same read-out and setting: next, `CCCOC(=O)NC1Cc2ccc(-c3ccc(=O)[nH]n3)cc2C1` (stereo not drawn) [Example 48]: 60.3%; `C=CC(=O)NCCCC1Cc2ccc(-c3ccc(=O)[nH]n3)cc2C1` (stereo not drawn) [Example 106]: 81%.
